Data from patent US20150105252A1, “SUBSTITUTED PYRAZOLES AS HERBICIDES” (E I DU PONT DE NEMOURS AND COMPANY, priority 2013, published 2015).

Key:
pigweed [1] = experiment: Test C postemergence; format: in vivo, Amaranthus retroflexus; settings: for Plant response rating (scale of 0 to 100 where 0 is no effect and 100 is complete control), Pigweed: 31 g ai/ha, visually evaluated after 13 to 15 days; for Pigweed plant response rating / Plant response rating, Pigweed: postemergence; for Pigweed plant response rating: 62 g ai/ha, scale 0 to 100
Outline: (§1)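 Postemergence values come from plants sprayed at the 1- to 4-leaf stage (2–18 cm) in peat moss–vermiculite medium; preemergence values from seeds treated in a loam–sand blend. Both evaluated visually against controls after 13–15 greenhouse days, scale 0–100.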

wheat = experiment: Test C postemergence; format: in vivo, Triticum aestivum; settings: for Plant response rating (scale of 0 to 100 where 0 is no effect and 100 is complete control), Wheat: 31 g ai/ha, visually evaluated after 13 to 15 days; for Wheat plant response rating / Plant response rating, Wheat: postemergence; for Wheat plant response rating: 62 g ai/ha, scale 0 to 100
Outline: as §1

crabgrass, large = experiment: Test A postemergence; format: in vivo, Digitaria sanguinalis
Outline: (§2)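 Scoring was visual, on a scale where 100 means complete control and 0 means no effect, comparing treated with untreated plants around 10 days post-application. Compounds in surfactant-containing non-phytotoxic solvent were sprayed onto soil preemergence or onto one- to two-leaf seedlings (2–10 cm) postemergence.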

barnyardgrass = experiment: Test C postemergence; format: in vivo, Echinochloa crus-galli; settings: for Plant response rating (scale of 0 to 100 where 0 is no effect and 100 is complete control), Barnyardgrass: 31 g ai/ha, visually evaluated after 13 to 15 days; for Barnyardgrass plant response rating / Plant response rating, Barnyardgrass: postemergence; for Barnyardgrass plant response rating: 62 g ai/ha, scale 0 to 100
Source text: Seeds of plant species selected from blackgrass (Alopecurus myosuroides), ryegrass, Italian (Italian ryegrass, Lolium multiflorum), wheat (winter wheat, Triticum aestivum), galium (catchweed bedstraw, Galium aparine), corn (Zea mays), crabgrass, large (large crabgrass, Digitaria sanguinalis), foxtail, giant (giant foxtail, Setaria faberii), johnsongrass (Sorghum halepense), lambsquarters (Chenopodium album), morningglory (Ipomoea coccinea), nutsedge, yellow (yellow nutsedge, Cyperus esculentus), pigweed (redroot pigweed, Amaranthus retroflexus), ragweed (common ragweed, Ambrosia elation), soybean (Glycine max), barnyardgrass (Echinochloa crus-galli), oilseed rape (Brassica napus), waterhemp (common waterhemp, Amaranthus rudis), oat, wild (wild oat, Avena fatua), kochia (Kochia scoparia), Surinam grass (Brachiaria decumbens), foxtail, green (green foxtail, Setaria viridis), goosegrass (Eleusine indica), bromegrass, downy (downy bromegrass, Bromus tectorum), nightshade (eastern black nightshade, Solanum ptycanthum), cocklebur (common cocklebur, Xanthium strumarium), cupgrass, woolly (woolly cupgrass, Eriochloa villosa), bermudagrass (Cynodon dactylon), sunflower, (common oilseed sunflower, Helianthus annuus), Russian thistle (Salsola kali), and velvetleaf (Abutilon theophrasti) were planted into a blend of loam soil and sand and treated preemergence with test chemicals formulated in a non-phytotoxic solvent mixture which included a surfactant.
At the same time, plants selected from these crop and weed species and also chickweed (common chickweed, Stellaria media), canarygrass (littleseed canarygrass, Phalaris minor), and deadnettle (henbit deadnettle, Lamium amplexicaule), were planted in pots containing Redi-Earth® planting medium (Scotts Company, 14111 Scottslawn Road, Marysville, Ohio 43041) comprising spaghnum peat moss, vermiculite, wetting agent and starter nutrients and treated with postemergence applications of test chemicals formulated in the same manner. Plants ranged in height from 2 to 18 cm (1- to 4-leaf stage) for postemergence treatments. Treated plants and controls were maintained in a greenhouse for 13 to 15 days, after which time all species were compared to controls and visually evaluated. Plant response ratings, summarized in Table C, are based on a scale of 0 to 100 where 0 is no effect and 100 is complete control. A dash (-) response means no test result.

corn = experiment: Test A postemergence; format: in vivo, Zea mays
Outline: as §2

foxtail, giant [2] = experiment: Test A preemergence; format: in vivo, Setaria faberii; settings: 0 to 100 scale
Outline: as §2

pigweed [3] = experiment: Test A preemergence; format: in vivo, Amaranthus retroflexus; settings: 0 to 100 scale
Outline: as §2

foxtail, giant [4] = experiment: Test C postemergence; format: in vivo, Setaria faberii; settings: for Plant response rating (scale of 0 to 100 where 0 is no effect and 100 is complete control), Foxtail, Giant: 31 g ai/ha, visually evaluated after 13 to 15 days; for Foxtail, Giant plant response rating / Plant response rating, Foxtail, Giant: postemergence; for Foxtail, Giant plant response rating: 62 g ai/ha, scale 0 to 100
Outline: as §1

blackgrass = experiment: Test C postemergence; format: in vivo, Alopecurus myosuroides; settings: for Plant response rating (scale of 0 to 100 where 0 is no effect and 100 is complete control), Blackgrass: 31 g ai/ha, visually evaluated after 13 to 15 days; for Blackgrass plant response rating / Plant response rating, Blackgrass: postemergence; for Blackgrass plant response rating: 62 g ai/ha, scale 0 to 100
Outline: as §1

soybean = experiment: Test C postemergence; format: in vivo, Glycine max; settings: for Plant response rating (scale of 0 to 100 where 0 is no effect and 100 is complete control), Soybean: 31 g ai/ha, visually evaluated after 13 to 15 days; for Soybean plant response rating / Plant response rating, Soybean: postemergence; for Soybean plant response rating: 62 g ai/ha, scale 0 to 100
Outline: as §1

johnsongrass = experiment: Test C preemergence; format: in vivo, Sorghum halepense
Outline: as §1

ragweed = experiment: Test C postemergence; format: in vivo, Ambrosia elation; settings: for Plant response rating (scale of 0 to 100 where 0 is no effect and 100 is complete control), Ragweed: 31 g ai/ha, visually evaluated after 13 to 15 days; for Ragweed plant response rating / Plant response rating, Ragweed: postemergence; for Ragweed plant response rating: 62 g ai/ha, scale 0 to 100
Outline: as §1

pigweed [5] = experiment: Test C preemergence; format: in vivo, Amaranthus retroflexus
Outline: as §1

galium = experiment: Test C preemergence; format: in vivo, Galium aparine
Outline: as §1

[6] = 250 g ai/ha, scale 0 to 100 (0 no effect, 100 complete control)
[7] = 125 g ai/ha, scale 0 to 100, 0 no effect, 100 complete control
[8] = Postemergence, 500 g ai/ha, visual rating after approx. 10 days, 0 to 100 scale (0 no effect, 100 complete control)
[9] = postemergence, 125 g ai/ha, about 10 days, visual rating on 0 to 100 scale (0 no effect, 100 complete control)
[10] = Preemergence, 500 g ai/ha, 0 no effect, 100 complete control
[11] = preemergence, 125 g ai/ha, visual injury, approx. 10 days
[12] = preemergence, 31 g ai/ha, scale 0 to 100 (0 no effect, 100 complete control), 13 to 15 days
[13] = preemergence, 62 g ai/ha, 13 to 15 days, scale 0 to 100, 0 = no effect, 100 = complete control
[14] = preemergence, 125 g ai/ha, scale 0 to 100, 0 is no effect, 100 is complete control
[15] = Preemergence, 16 g ai/ha, scale 0 to 100

CCc1cc(C(=O)NC2CC2)nn1Cc1ccnc(C(F)(F)F)c1 [Compound 76]
98: Plant response rating, Pigweed (pigweed [1]; [6]) | Plant response rating, Soybean (soybean; [6]) | Galium plant response rating (galium; [12])
60: Plant response rating (scale of 0 to 100 where 0 is no effect and 100 is complete control), Pigweed (pigweed [1]; Postemergence) | Pigweed plant response rating (pigweed [1]) | Plant response rating, Barnyardgrass (barnyardgrass; [6])
85: Plant response rating, Foxtail, Giant (foxtail, giant [4]; [6])
75: Soybean plant response rating (soybean) | Ragweed plant response rating (ragweed) | Plant response rating, Ragweed (ragweed; [7])
15: Plant response rating, Barnyardgrass (barnyardgrass; [7])
5: Wheat plant response rating (wheat) | Plant response rating, Wheat (wheat; [6]) | Plant response rating, Wheat (wheat; [7]) | Plant response rating (scale of 0 to 100 where 0 is no effect and 100 is complete control), Barnyardgrass (barnyardgrass; Postemergence) | Barnyardgrass plant response rating (barnyardgrass) | Plant response rating (scale of 0 to 100 where 0 is no effect and 100 is complete control), Blackgrass (blackgrass; Postemergence) | Blackgrass plant response rating (blackgrass) | Plant response rating, Blackgrass (blackgrass; [7])
80: Crabgrass, Large plant response rating (crabgrass, large; [9]) | Corn plant response rating (corn; [9]) | Foxtail, Giant plant response rating (foxtail, giant [2]; [11]) | Johnsongrass plant response rating (johnsongrass; [12])
95: Plant response rating, Soybean (soybean; [7])
10: Plant response rating, Blackgrass (blackgrass; [6])
20: Plant response rating (scale of 0 to 100 where 0 is no effect and 100 is complete control), Foxtail, Giant (foxtail, giant [4]; Postemergence) | Foxtail, Giant plant response rating (foxtail, giant [4])
55: Plant response rating (scale of 0 to 100 where 0 is no effect and 100 is complete control), Ragweed (ragweed; Postemergence)
65: Plant response rating, Foxtail, Giant (foxtail, giant [4]; [7]) | Plant response rating (scale of 0 to 100 where 0 is no effect and 100 is complete control), Soybean (soybean; Postemergence)
90: Plant response rating, Pigweed (pigweed [1]; [7]) | Corn plant response rating (corn; [8]) | Plant response rating, Ragweed (ragweed; [6])
100: Crabgrass, Large plant response rating (crabgrass, large; [8]) | Foxtail, Giant plant response rating (foxtail, giant [2]; [10]) | Pigweed plant response rating (pigweed [3]; [10]) | Pigweed plant response rating (pigweed [3]; [11]) | Plant response rating (scale of 0 to 100), Johnsongrass (johnsongrass; Preemergence, 250 g ai/ha) | Plant response rating, Johnsongrass (johnsongrass; [13]) | Johnsongrass plant response rating (johnsongrass; [14]) | Plant response rating (scale of 0 to 100), Pigweed (pigweed [5]; Preemergence, 250 g ai/ha) | Pigweed plant response rating (pigweed [5]; [12]) | Plant response rating, Pigweed (pigweed [5]; [13]) | Pigweed plant response rating (pigweed [5]; [14]) | Plant response rating (scale of 0 to 100), Galium (galium; Preemergence, 250 g ai/ha) | Plant response rating, Galium (galium; [13]) | Galium plant response rating (galium; [14])
0: Plant response rating (scale of 0 to 100 where 0 is no effect and 100 is complete control), Wheat (wheat; Postemergence)

CCONC(=O)c1cc(CC)n(Cc2ccnc(C(F)(F)F)c2)n1 [Compound 77]
90: Crabgrass, Large plant response rating (crabgrass, large; [9])
70: Johnsongrass plant response rating (johnsongrass; [14]) | Plant response rating, Pigweed (pigweed [5]; [15])
55: Pigweed plant response rating (pigweed [1])
40: Corn plant response rating (corn; [8])
35: Plant response rating, Soybean (soybean; [7])
20: Plant response rating, Barnyardgrass (barnyardgrass; [7]) | Plant response rating, Foxtail, Giant (foxtail, giant [4]; [7])
45: Johnsongrass plant response rating (johnsongrass; [12])
25: Plant response rating (scale of 0 to 100), Pigweed (pigweed [1]; Postemergence, 16 g ai/ha) | Soybean plant response rating (soybean)
60: Plant response rating, Pigweed (pigweed [1]; [7])
0: Plant response rating (scale of 0 to 100), Wheat (wheat; Postemergence, 16 g ai/ha) | Plant response rating (scale of 0 to 100 where 0 is no effect and 100 is complete control), Wheat (wheat; Postemergence) | Plant response rating (scale of 0 to 100), Barnyardgrass (barnyardgrass; Postemergence, 16 g ai/ha) | Plant response rating (scale of 0 to 100 where 0 is no effect and 100 is complete control), Barnyardgrass (barnyardgrass; Postemergence) | Plant response rating (scale of 0 to 100), Blackgrass (blackgrass; Postemergence, 16 g ai/ha) | Plant response rating, Galium (galium; [15]) | Galium plant response rating (galium; [12])
30: Corn plant response rating (corn; [9])
10: Foxtail, Giant plant response rating (foxtail, giant [4]) | Plant response rating (scale of 0 to 100), Soybean (soybean; Postemergence, 16 g ai/ha) | Plant response rating (scale of 0 to 100 where 0 is no effect and 100 is complete control), Soybean (soybean; Postemergence) | Plant response rating, Johnsongrass (johnsongrass; [15]) | Ragweed plant response rating (ragweed) | Plant response rating, Ragweed (ragweed; [7]) | Galium plant response rating (galium; [14])
50: Plant response rating (scale of 0 to 100 where 0 is no effect and 100 is complete control), Pigweed (pigweed [1]; Postemergence)
5: Wheat plant response rating (wheat) | Plant response rating, Wheat (wheat; [7]) | Barnyardgrass plant response rating (barnyardgrass) | Plant response rating (scale of 0 to 100), Foxtail, Giant (foxtail, giant [4]; Postemergence, 16 g ai/ha) | Plant response rating (scale of 0 to 100 where 0 is no effect and 100 is complete control), Foxtail, Giant (foxtail, giant [4]; Postemergence) | Plant response rating (scale of 0 to 100 where 0 is no effect and 100 is complete control), Blackgrass (blackgrass; Postemergence) | Blackgrass plant response rating (blackgrass) | Plant response rating, Blackgrass (blackgrass; [7]) | Plant response rating (scale of 0 to 100), Ragweed (ragweed; Postemergence, 16 g ai/ha) | Plant response rating (scale of 0 to 100 where 0 is no effect and 100 is complete control), Ragweed (ragweed; Postemergence) | Plant response rating, Galium (galium; [13])
100: Crabgrass, Large plant response rating (crabgrass, large; [8]) | Foxtail, Giant plant response rating (foxtail, giant [2]; [10]) | Foxtail, Giant plant response rating (foxtail, giant [2]; [11]) | Pigweed plant response rating (pigweed [3]; [10]) | Pigweed plant response rating (pigweed [3]; [11]) | Pigweed plant response rating (pigweed [5]; [12]) | Plant response rating, Pigweed (pigweed [5]; [13]) | Pigweed plant response rating (pigweed [5]; [14])
